{
  "source": "patent US12303500B2",
  "about": "“Method for improving stability of low-concentration atropine ophthalmic preparation” (SHENYANG XINGQI PHARMACEUTICAL CO., LTD., priority 2018, dated 2025)",
  "settings": "40°C±2°C, RH 75%±5%",
  "note": "Structures can show the parent of a compound that is named as a salt. Where two headings read alike, the source gives them in different places.",
  "from_the_text": "In the chromatogram of the sample solution, the chromatographic peaks with peak area smaller than 0.5 times of the main peak area of the control solution should be ignored.",
  "data": [
    {"smiles": "CN1[C@@H]2CC[C@H]1C[C@@H](OC(=O)C(CO)c1ccccc1)C2", "note": "(stereo partly drawn) [Example 160903-P01, atropine sulfate]", "values": [
      {"measurement": "Content", "setting": "0th month", "value": 100.3, "unit": "%"},
      {"measurement": "Hyoscyamine", "setting": "0th month", "value": "+0.002°"},
      {"measurement": "Moisture", "setting": "0th month", "value": 3.15, "unit": "%"},
      {"measurement": "Content", "setting": "1st month", "value": 100.3, "unit": "%"},
      {"measurement": "Hyoscyamine", "setting": "1st month", "value": "+0.002°"},
      {"measurement": "Moisture", "setting": "1st month", "value": 3.24, "unit": "%"},
      {"measurement": "Content", "setting": "2nd month", "value": 100.2, "unit": "%"},
      {"measurement": "Hyoscyamine", "setting": "2nd month", "value": "+0.001°"},
      {"measurement": "Moisture", "setting": "2nd month", "value": 2.97, "unit": "%"},
      {"measurement": "Content", "setting": "3rd month", "value": 100.4, "unit": "%"},
      {"measurement": "Hyoscyamine", "setting": "3rd month", "value": 0.000, "unit": "°"},
      {"measurement": "Moisture", "setting": "3rd month", "value": 3.49, "unit": "%"},
      {"measurement": "Content", "setting": "6th month", "value": 100.3, "unit": "%"},
      {"measurement": "Hyoscyamine", "setting": "6th month", "value": 0.000, "unit": "°"},
      {"measurement": "Moisture", "setting": "6th month", "value": 3.69, "unit": "%"}
    ]}
  ]
}
